Results on 40 compounds are retold here after patent publication US8710045B2, “Agents for preventing and treating disorders involving modulation of the ryanodine receptors” (The Trustees of Columbia University in the City of New York, priority 2004, dated 2014).

What is called pEC50 is −log10 of the EC50, conventionally taken in molar units. A low value points to a high EC50. What is called pIC50 is the negative decadic logarithm of the IC50, by convention in mol/L. High values mean a small IC50, low ones a large IC50. Usually inhibition stands for the share of the control response that was lost under treatment. A lower inhibition goes with a response near the control.

For series [1], the target named is T1, PKA-phosphorylated RyR2 (Homo sapiens, UniProt Q92736).
T1 construct: from tissue
The experiment in a line: FKBP12.6 rebinding assay: FKBP12.6 binding to PKA-phosphorylated RyR2 in cardiac SR. Conditions: compound 0.5-1000 nM; Michaelis-Menten curve fitting. As to the method:
Samples are centrifuged at 95,000 g for 10 min and the pellets are washed three times in 0.2 ml imidazole buffer. The final pellets are pooled and resuspended in imidazole buffer (final concentration≈10 μg/μl). […] Samples then are centrifuged at 100,000 g for 10 minutes and pellets washed 3 times with imidizol buffer. […] Immunoblots are developed using an anti-FKBP antibody (1:3,000 dilution). […] The intracellular solution contains (in mM): CsCl, 60; CaCl2, 1; EGTA, 11; MgCl2, 1; K2ATP, 5; HEPES, 10; aspartic acid, 50; pH 7.4 (CsOH). Under these conditions, it is expected that the measured current was carried by Ba^2+ primarily through L-type calcium channels which is referred to as ICa,L. Drugs are applied by a local solution changer and reach the cell membrane within 1 s.
The FKBP12.6 rebinding assay described above is used to determine the amount of FKBP12.6 binding to PKA-phosphorylated RyR2 at various concentrations (0.5-1000 nM) of the compounds shown. EC50 values are calculated using Michaelis-Menten curve fitting.
The EC50 values are calculated using Michaelis-Menten curve fitting.

The target of series [2] is hERG current (Homo sapiens, UniProt Q12809). The experiment in a line: hERG current, PatchXpress 7000A automatic parallel patch clamp in hERG-transfected HEK 293 cells (Example 6). Conditions: for Individual Data (% Inhibition): single cell. The method, then:
(§1) HEK293 cells were transfected with a plasmid containing the hERG cDNA and a neomycin resistance gene. Stable transfectants were selected by culturing the cells in the presence of G418. The selection pressure was maintained by continued culture in the presence of G418. […] Cells for use in electrophysiology were cultured in 35 mm dishes.
(§2) Onset and steady state block of hERG current was measured using a pulse pattern with fixed amplitudes (conditioning prepulse: +20 mV for 2 seconds; test pulse: −50 mV for 2 seconds) repeated at 10 second intervals, from a holding potential of −80 mV. Peak tail current was measured during the 2 second step to −50 mV. A steady state was maintained for at least 30 seconds before applying the test compound or the positive control. Peak tail current was monitored until a new steady state was achieved. Test compound concentrations were applied cumulatively in ascending order without washout between applications.
(§3) Data acquisition and analysis was performed using the suite of pCLAMP (Vre. 8.2) programs (Axon Instruments, Union City, Calif.). Steady state was defined by the limiting constant rate of change with time (linear time dependence). The steady state before and after application of the test or control compounds was used to calculate the percentage of current inhibited at each concentration. […] Nonlinear squares fits were solved with the Solver add-in for Excel 2000 (Microsoft, Redmond, Wash.).
(§4) Multiple compounds of the invention were tested for their effects on hERG currents. The compounds tested were: ARM036-Na, ARM047, ARM048, ARM050, ARM057, ARM064, ARM074, ARM075, ARM076, ARM077, ARM101, ARM102, ARM103, ARM104, ARM106, ARM107 and ARM26. […] Electrophysiological recordings were made using the PatchXpress 7000 A (Molecular Devices) automatic parallel patch clamp system. […] The duration of exposure to each test concentration was 5 minutes.
(Block of hERG is tested as a sign of cardiac risk.)

Series [3] deals with hERG (Homo sapiens, UniProt Q12809). Described as above. Conditions: human, HEK 293 cells stably transfected with hERG cDNA. As to the method:
as §1, §2, §3, §4

The mark [4] stands for this setting: Individual Data (% Inhibition), single cell.

pEC50, pIC50: −log10 of the molar value. Values joined by “and” are separate entries in the source; they are usually repeats but may differ in a detail not shown here. Identical values can stand only once.

Chain of hERG current (Q12809 whole entry): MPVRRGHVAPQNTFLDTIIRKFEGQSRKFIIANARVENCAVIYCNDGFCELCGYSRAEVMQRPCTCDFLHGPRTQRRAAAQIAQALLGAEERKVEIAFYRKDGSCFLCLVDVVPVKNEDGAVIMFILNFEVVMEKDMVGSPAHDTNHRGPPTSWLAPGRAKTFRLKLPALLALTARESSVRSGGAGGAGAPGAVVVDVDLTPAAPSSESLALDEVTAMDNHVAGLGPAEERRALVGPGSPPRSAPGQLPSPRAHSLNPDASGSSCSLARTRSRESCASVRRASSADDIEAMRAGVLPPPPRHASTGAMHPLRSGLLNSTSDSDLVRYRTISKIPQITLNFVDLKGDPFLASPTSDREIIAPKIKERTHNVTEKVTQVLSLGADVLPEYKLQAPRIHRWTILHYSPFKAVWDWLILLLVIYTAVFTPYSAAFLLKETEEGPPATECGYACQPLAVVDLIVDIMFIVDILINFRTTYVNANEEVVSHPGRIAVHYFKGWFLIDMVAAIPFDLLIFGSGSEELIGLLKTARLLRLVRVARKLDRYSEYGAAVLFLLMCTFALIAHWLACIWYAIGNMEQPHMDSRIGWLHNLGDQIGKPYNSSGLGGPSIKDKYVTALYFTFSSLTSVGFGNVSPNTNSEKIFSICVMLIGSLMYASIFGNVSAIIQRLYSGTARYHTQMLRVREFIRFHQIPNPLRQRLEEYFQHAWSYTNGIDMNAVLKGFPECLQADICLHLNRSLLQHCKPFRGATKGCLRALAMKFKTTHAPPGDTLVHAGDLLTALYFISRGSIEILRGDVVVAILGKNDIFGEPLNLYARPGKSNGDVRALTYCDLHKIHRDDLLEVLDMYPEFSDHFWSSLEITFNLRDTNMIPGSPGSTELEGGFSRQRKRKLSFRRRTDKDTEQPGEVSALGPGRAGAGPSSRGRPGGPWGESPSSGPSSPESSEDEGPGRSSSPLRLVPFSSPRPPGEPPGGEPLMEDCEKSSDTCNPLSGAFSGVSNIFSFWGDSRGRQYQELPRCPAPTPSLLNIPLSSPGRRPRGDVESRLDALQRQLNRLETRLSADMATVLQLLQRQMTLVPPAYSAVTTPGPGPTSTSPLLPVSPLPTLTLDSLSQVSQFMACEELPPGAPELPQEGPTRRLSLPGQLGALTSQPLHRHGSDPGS
Chain of hERG (Q12809 whole entry): as above

As to `CCN(CC)C(=O)C(=O)N1CCSc2ccc(OC)cc2C1` [S59], the pEC50 in series [1] was 6.99. `O=C(NO)N1CCSc2ccccc2C1` [S74] showed a pEC50 in series [1] of 6.66. Further, the “Mean % hERG Inhibition” value came out at 1.9% in series [2] (0.01 μM), 4.8% in series [2] (0.1 μM), 1.3% in series [2] (1 μM) and 9.5% in series [2] (10 μM). In addition, the “Individual Data (% Inhibition)” value in series [2] (0.01 μM, listed as ARM074, 0.01 µM) is 0.8% and 3.0%; in series [2] (0.1 μM, listed as ARM074, 0.1 µM) it was 5.9% and 3.7%; in series [2] (1 μM, listed as ARM074, 1 µM), 0.2% and 2.4% and 5.6%; in series [2] (10 μM, listed as ARM074, 10 µM), 9.3% and 9.6% and 14.0%. In turn, `CCCCN(CCCC)CCS(=O)(=O)N1CCSc2ccc(OC)cc2C1` [S2] gave a pEC50 in series [1] of 6.68. The compound `COc1ccc2c(c1)CN(C(=O)N1CCN(Cc3ccc4c(c3)OCO4)CC1)CCS2` [S47] had a pEC50 in series [1] of 7.70. The pIC50 in series [2] is 5.60. The “Mean % hERG Inhibition” value in series [2] (0.01 μM) was 2.7%; in series [2] (0.1 μM), 9.7%; in series [2] (1 μM), 29.6%; in series [2] (10 μM), 78.0%. Besides, the “Individual Data (% Inhibition)” value is 1.7% and 3.7% in series [2] (0.01 μM, listed as ARM047, 0.01 µM); 6.5% and 12.9% in series [2] (0.1 μM, listed as ARM047, 0.1 µM); 30.8% and 20.4% and 37.5% in series [2] (1 μM, listed as ARM047, 1 µM); 82.1% and 75.9% in series [2] (10 μM, listed as ARM047, 10 µM).

On to `COc1ccc2c(c1)CN(C(=O)CCN1CCCCC1c1nnc(Cc3ccccc3)o1)CCS2` (stereo not shown) [S55], for which the pEC50 in series [1] is 6.95. The same measure, in the same setting: the value for `COc1ccc2c(c1)CN(C(=O)C(=O)NCCSSCCNC(=O)C(=O)N1CCSc3ccc(OC)cc3C1)CCS2` [S44] was 6.92; that for `COc1ccc2c(c1)CN(C(=O)N1CCN(c3ccccc3)CC1)CCS2` [S53] was 6.70. Same read-out and setting: for `COc1ccc2c(c1)CN(C(=O)NO)CCS2` [S51] the value was 6.76; for `COc1ccc2c(c1)CN(C(=O)N1CCC(Cc3ccccc3)CC1)CCS2` [S6], 6.60; for `COc1ccc2c(c1)CN(C(=O)NCc1ccc3c(c1)CCO3)CCS2` [S52], 6.84. The same measure, in the same setting: the value for `COc1ccc2c(c1)CN(C(=O)NCCc1ccc(O)c(O)c1)CCS2` [S66] was 6.96; that for `COc1ccc2c(c1)C(=O)NCCS2` [S25] was 7.40. Compound `COc1ccc2c(c1)CN(C(=O)CCN1CCC(Cc3ccc(N)cc3)CC1)CCS2` [S60] showed a pEC50 in series [1] of 7.17. The same measure, in the same setting: for `COc1ccc2c(c1)CN(S(=O)(=O)CCN1CCC(Cc3ccccc3)CC1)CCS2` [S1] the value was 6.82. Same read-out and setting: for `COc1ccc2c(c1)CN(C(=O)CCN1CCC(Cc3ccc(N)cc3N)CC1)CCS2` [S61] the value was 7.02. `COc1ccc2c(c1)CN(C(=O)C(=O)[O-])CCS2.[Na+]` [ARM036-Na]: the “Mean % hERG Inhibition” value came to 0.2% in series [2] (0.01 μM), 5.0% in series [2] (0.1 μM), 5.5% in series [2] (1 μM) and 6.7% in series [2] (10 μM). The “Individual Data (% Inhibition)” value in series [2] (0.01 μM) is 0.0% and 0.3%; in series [2] (0.1 μM), 10.0% and 0.0%; in series [2] (1 μM), 2.4% and 8.6%; in series [2] (10 μM), 5.1% and 8.2%. For the same compound, in series [2] (highest concentration tested (10 μM)), the “hERG current inhibition at the highest concentration tested” value is “less than 50%”. In turn, `COc1ccc2c(c1)CN(C(=O)CCN1CCC(Cc3ccc(N=[N+]=[N-])cc3N=[N+]=[N-])CC1)CCS2` [S63] had a negative logarithm of the EC50 (pEC50) in series [1] of 7.28. On the same count and under the same terms, for `COc1ccc2c(c1)CN(C(=O)C(=O)NCCSSCCNC(=O)c1ccc(N=[N+]=[N-])cc1O)CCS2` [S45] the value was 7.10; for `COc1ccc2c(c1)CN(C(=O)CCC(=O)N1CCSc3ccc(OC)cc3C1)CCS2` [S19], 6.58; for `COc1ccc2c(c1)CN(C(=O)NCc1ccccc1)CCS2` [S49], 7.09. On to `COc1ccc2c(c1)CN(C(=O)c1ccc(N=[N+]=[N-])cc1O)CCS2` [S40], for which the pEC50 in series [1] is 7.00.

Regarding `COc1ccc2c(c1)CN(S(=O)(=O)Nc1cccnc1)CCS2` [S54], in series [1], the negative-log EC50 (pEC50) is 7.11. For the compound `COc1ccc2c(c1)CN(C(=O)NCCc1cnc[nH]1)CCS2` [S67], in series [1], the negative logarithm of the EC50 (pEC50) is 7.05. The same measure, in the same setting: the value for `COc1ccc2c(c1)CN(C(N)=O)CCS2` [S46] was 6.82; that for `COc1ccc2c(c1)CN(C(=O)c1ccccc1)CCS2` [S9] was 6.69. Still for that read-out and setting: for `COc1ccc2c(c1)CN(C(=O)CI)CCS2` [S7] the value was 7.26; for `C=CC(=O)N1CCSc2ccc(OC)cc2C1` [S27], roughly 7.30. On the same count and under the same terms, for `COc1ccc2c(c1)CN(S(C)(=O)=O)CCS2` [S4] the value was 6.99; for `c1ccc2c(c1)CNCCS2` [S68], roughly 7.00. In series [1], `COc1ccc2c(c1)CN(C(=O)CCN1CCC(Cc3ccc(N=[N+]=[N-])cc3)CC1)CCS2` [S62] gave a pEC50 of 7.35. The same measure, in the same setting: for `COc1ccc2c(c1)CN(C(=O)Nc1ccccc1)CCS2` [S11] the value was 6.74. With `O=C(N1CCNCC1)N1CCSc2ccccc2C1` [S103], the inhibition at 5 min, 0.1 µM is 4.2% in series [3] (setting [4]) and 3.3% in series [3] (Mean % hERG Inhibition). For the same compound, the inhibition at 5 min, 1 µM in series [3] (setting [4]) turned out to be 5%; in series [3] (Mean % hERG Inhibition), 7.3%. In addition, the inhibition at 5 min, 10 µM in series [3] (Individual Data (% Inhibition), 10 μM, single cell) is 28.4%; in series [3] (Mean % hERG Inhibition, 10 μM) it was 29.2%; in series [3] (hERG current inhibition at the highest concentration tested, highest concentration tested (10 μM)) it was less than 50%. Also, the inhibition at 5 min, 0.01 µM in series [3] (Mean % hERG Inhibition, 0.01 μM) is 6.8%. The “Individual Data (% Inhibition)” value in series [2] (0.01 μM, listed as ARM103, 0.01 µM) was 12.1% and 1.5%; in series [2] (0.1 μM, listed as ARM103, 0.1 µM), 2.4%; in series [2] (1 μM, listed as ARM103, 1 µM), 9.6%; in series [2] (10 μM, listed as ARM103, 10 µM), 29.9%.

In turn, `COc1ccc2c(c1)CN(C(=O)c1cccc(C(=O)N3CCSc4ccc(OC)cc4C3)n1)CCS2` [S22] showed a pEC50 in series [1] of 6.45. Same read-out and setting: the value for `COc1ccc2c(c1)CN(C(=O)C(=O)NCCSSCCNC(=O)c1ccc(N=[N+]=[N-])cc1[N+](=O)[O-])CCS2` [S43] was 7.10; that for `COc1ccc2c(c1)CN(C(=O)CC(=O)O)CCS2` [S38] was 7.36. The same measure, in the same setting: the value for `COc1ccc2c(c1)CN(C(=O)CCN1CCCCC1)CCS2` [S58] was 7.26; that for `COc1ccc2c(c1)CN(C(=O)CCN1CCCC[C@H]1c1nnc(Cc3ccccc3)o1)CCS2` [S56] was 7.02; that for `COc1ccc2c(c1)CN(C(=S)Nc1ccccc1)CCS2` [S12] was 6.71.

As for `COc1ccc2c(c1)CN(S(=O)(=O)c1ccc(C)cc1)CCS2` [S5], in series [1], the negative logarithm of the EC50 (pEC50) is 6.68. The pEC50 values of the last two compounds are within 0.2 log units of each other. Same read-out and setting: for `COc1ccc2c(c1)CN(C(=O)CCN1CCC(Cc3ccccc3)CC1)CCS2(=O)=O` [S23] the value was 6.57.
